US4931440A, “Uricosuric composition” (Fujisawa Pharmaceutical Company, Ltd., priority 1987, dated 1990)

How the values were obtained:
[1] = Uricosuric action: serum uric acid level in healthy male adult volunteers; assay type: in vivo, humans; conditions: single oral dose 600 mg (two capsules of Example 1), N = 6
Procedure: Compound A, in a single dose of 600 mg (two capsules according to the example (1) given hereinafter), was administered orally to six humans (healthy male adult volunteers) and the serum uric acid level was determined for 48 hours after administration.

[2] = Acute toxicity, oral, 14 days observation; conditions: rat, in vivo, male SD rats
Source text: Male SD rats (5 animals per group) were orally dosed with a suspension of the test compound in 0.5% methylcellulose solution and observed for 14 days after oral administration.

[3] = Effect on uric acid excretion in female rats (urinary uric acid assayed by HPLC); assay type: in vivo, female SD rats; conditions: p.o., urine collected 0-6 hr, dose 0: 3.07 ± 0.44
Procedure: Female SD rats (6 weeks old) were fasted for 18 hours and submitted to the test (3 animals per group).
Compound B was suspended in 0.5% methylcellulose solution and the suspension was orally administered in a dosing volume of 5 ml/kg.
At the same time, the animals were orally loaded with 20 ml/kg of physiological saline. Urine samples were collected up to 6 hours after drug administration. The uric acid in each urine sample was assayed by HPLC.

Compound | Serum uric acid concentration, mean ± standard deviation ([1]; 4 Hrs. after administration, *: significant decrease from baseline (5.5500 ± 0.9439), < 0.05) | Serum uric acid concentration, mean ± standard deviation ([1]; 8 Hrs. after administration, **: significant decrease from baseline (5.5500 ± 0.9439), P < 0.01) | Serum uric acid concentration, mean ± standard deviation ([1]; 12 Hrs. after administration, **: significant decrease from baseline (5.5500 ± 0.9439), P < 0.01) | Serum uric acid concentration, mean ± standard deviation ([1]; 24 Hrs. after administration, *: significant decrease from baseline (5.5500 ± 0.9439), < 0.05) | Serum uric acid concentration, mean ± standard deviation ([1]; 48 Hrs. after administration, *: significant decrease from baseline (5.5500 ± 0.9439), < 0.05) | LD50 at 336 h [2] | Excretion of uric acid, mean ± S.E. ([3]; 10 mg/kg) | Excretion of uric acid, mean ± S.E. ([3]; 100 mg/kg) | Excretion of uric acid, mean ± S.E. ([3]; 320 mg/kg, *: P < 0.05)
O=C(O)Cn1c(=O)n(Cc2ccc(Br)cc2F)c(=O)c2ccc(Cl)cc21 [Compound A] | 4.5000 ± 0.6542 mg/dL | 4.0333 ± 0.6250 mg/dL | 4.1667 ± 0.7448 mg/dL | 4.3167 ± 0.7360 mg/dL | 4.5167 ± 0.5981 mg/dL | 4250 mg/kg |  |  | 
O=C(O)Cn1c(=O)n(Cc2ccc(Br)cc2F)c(=O)c2ccc(F)cc21 [Compound B, 2-[7-Fluoro-3-(4-bromo-2-fluorobenzyl)-1,2,3,4-tetrahydro-2,4-dioxoquinazolin-1-yl]acetic acid] |  |  |  |  |  | 2140 mg/kg | 3.36 ± 0.14 mg/kg | 4.02 ± 0.18 mg/kg | 4.88 ± 0.24 mg/kg
